Measurements as given in patent US8541365B2, “Dendrimeric compounds comprising amino acids, hyperbranched core compound, process for preparation of dendrimeric compounds comprising amino acids and hyperbranched core compound, and use thereof” (Instytut Chemii Organicznej, Polska Akademia Nauk, priority 2008, dated 2013).
Where two headings read alike, the source gives them in different places.

Assays:
S. aureus ATTC 43300 = assay type: cell-based, Staphylococus aureus subsp. aureus; conditions: S. aureus ATTC 43300; microdilution in CAMHB, 18 h at 33° C.
Method: (§1) Titration plates with a, b, d strains were incubated for 18 h at 35° C. under aerobic conditions, and the c strain was incubated for 18 h at 33° C. under aerobic conditions.
c) Staphylococus aureus subsp. aureus ATCC 43300,

E. coli ATTC 25922 = assay type: cell-based, Escherichia coli; conditions: E. coli ATTC 25922; microdilution in CAMHB, 18 h at 35° C.
Method: as §1
d) Escherichia coli ATCC 25922

P. aeruginosa ATTC 27853 = assay type: cell-based, Pseudomonas aeruginosa; conditions: P. aeruginosa ATTC 27853; microdilution in CAMHB, 18 h at 35° C.
Method: as §1
a) Pseudomonas aeruginosa ATCC 27853,

S. aureus ATCC 25923 = assay type: cell-based, Staphylococus aureus subsp. aureus; conditions: S. aureus ATCC 25923; microdilution in CAMHB, 18 h at 35° C.
Method: as §1
b) Staphylococus aureus subsp. aureus ATCC 25923,

[1] = test system: human melanoma cells (MEW 155); conditions: MEW 155 cells, 3 days culture
Method: Human melanoma cells (MEW 155) received from Institute of Oncology were inoculated on Petri dishes (Ø3 cm, Nunc) to the number of about 75 000, suspended in 3 ml of Eagle medium+10% FBS+antibiotics. Immediately after the inoculation, solutions of tested substances were added to the cells (a substance +20 ml PBS) at 0.5 ml per dish. After culturing for 3 days, numbers of cells (all, dead and alive) at each dish were determined with NucleoCounter apparatus (Chemometec).

| Compound | Minimal inhibitory concentration (MIC) (S. aureus ATTC 43300) [μM/L] | Minimal inhibitory concentration (MIC) (E. coli ATTC 25922) [μM/L] | Minimal inhibitory concentration (MIC) (P. aeruginosa ATTC 27853) [μM/L] | Minimal inhibitory concentration (MIC) (S. aureus ATCC 25923) [μM/L] | also measured |
| --- | --- | --- | --- | --- | --- |
| N[C@@H](CCCCNC(=O)OCc1ccccc1Cl)C(=O)NCCNC(=O)CCN(CCC(=O)NCCNC(=O)[C@@H](N)CCCCNC(=O)OCc1ccccc1Cl)C[C@@H](C(=O)NCCc1c[nH]c2ccccc12)N(CCC(=O)NCCNC(=O)[C@@H](N)CCCCNC(=O)OCc1ccccc1Cl)CCC(=O)NCCNC(=O)[C@@H](N)CCCCNC(=O)OCc1ccccc1Cl [Compound 99] | 3.32 | 7.0 | 52 | 0.6 | – |
| NCCCC[C@H](NC(=O)OCc1ccccc1Cl)C(=O)NCCNC(=O)CCN(CCC(=O)NCCNC(=O)[C@H](CCCCN)NC(=O)OCc1ccccc1Cl)C[C@@H](C(=O)NCCc1c[nH]c2ccccc12)N(CCC(=O)NCCNC(=O)[C@H](CCCCN)NC(=O)OCc1ccccc1Cl)CCC(=O)NCCNC(=O)[C@H](CCCCN)NC(=O)OCc1ccccc1Cl [Compound 98] | 8.06 | 12.3 | 52 | 0.95 | Live cells (%) ([1]; concentration 4.3 μMol dm^−3): 97.7% |
| NCCCC[C@H](NC(=O)OCc1ccccc1Cl)C(=O)NCCNC(=O)CCN(CCCC(C(=O)Nc1cccnc1)N(CCC(=O)NCCNC(=O)[C@H](CCCCN)NC(=O)OCc1ccccc1Cl)CCC(=O)NCCNC(=O)[C@H](CCCCN)NC(=O)OCc1ccccc1Cl)CCC(=O)NCCNC(=O)[C@H](CCCCN)NC(=O)OCc1ccccc1Cl (some centres unmarked) [Compound 93] | – | – | – | – | Live cells (%) ([1]; concentration 13.65 μMol dm^−3): 95.8% |
| N[C@@H](CCCCNC(=O)OCc1ccccc1Cl)C(=O)NCCNC(=O)CCN(CCC[C@@H](C(=O)NCCc1c[nH]cn1)N(CCC(=O)NCCNC(=O)[C@@H](N)CCCCNC(=O)OCc1ccccc1Cl)CCC(=O)NCCNC(=O)[C@@H](N)CCCCNC(=O)OCc1ccccc1Cl)CCC(=O)NCCNC(=O)[C@@H](N)CCCCNC(=O)OCc1ccccc1Cl [Compound 108] | – | – | – | – | Live cells (%) ([1]; concentration 42.1 μMol dm^−3): 94.9% |
| N[C@@H](CCCCNC(=O)OCc1ccccc1)C(=O)NCCNC(=O)CCN(CCCC[C@@H](C(=O)NCCc1c[nH]c2ccccc12)N(CCC(=O)NCCNC(=O)[C@@H](N)CCCCNC(=O)OCc1ccccc1)CCC(=O)NCCNC(=O)[C@@H](N)CCCCNC(=O)OCc1ccccc1)CCC(=O)NCCNC(=O)[C@@H](N)CCCCNC(=O)OCc1ccccc1 [Compound 103] | 74 | 111 | 149 | 12.9 | Live cells (%) ([1]; concentration 15.0 μMol dm^−3): 96.5% |
| N[C@@H](CCCCNC(=O)OCc1ccccc1Cl)C(=O)NCCNC(=O)CCN(CCC[C@@H](C(=O)NCCc1c[nH]c2ccccc12)N(CCC(=O)NCCNC(=O)[C@@H](N)CCCCNC(=O)OCc1ccccc1Cl)CCC(=O)NCCNC(=O)[C@@H](N)CCCCNC(=O)OCc1ccccc1Cl)CCC(=O)NCCNC(=O)[C@@H](N)CCCCNC(=O)OCc1ccccc1Cl [Compound 97] | 20.4 | 7.9 | 60 | 0.93 | – |
| NCCCC[C@H](NC(=O)OCc1ccccc1Cl)C(=O)NCCNC(=O)CCN(CCC[C@@H](C(=O)NCCc1c[nH]cn1)N(CCC(=O)NCCNC(=O)[C@H](CCCCN)NC(=O)OCc1ccccc1Cl)CCC(=O)NCCNC(=O)[C@H](CCCCN)NC(=O)OCc1ccccc1Cl)CCC(=O)NCCNC(=O)[C@H](CCCCN)NC(=O)OCc1ccccc1Cl [Compound 107] | – | – | – | – | Live cells (%) ([1]; concentration 47.1 μMol dm^−3): 91.1% |
| NCCCC[C@H](NC(=O)OCc1ccccc1Cl)C(=O)NCCNC(=O)CCN(CCC[C@@H](C(=O)NCCc1c[nH]c2ccccc12)N(CCC(=O)NCCNC(=O)[C@H](CCCCN)NC(=O)OCc1ccccc1Cl)CCC(=O)NCCNC(=O)[C@H](CCCCN)NC(=O)OCc1ccccc1Cl)CCC(=O)NCCNC(=O)[C@H](CCCCN)NC(=O)OCc1ccccc1Cl [Compound 96] | 12.1 | 12.1 | 51 | 1.87 | Live cells (%) ([1]; concentration 33.6 μMol dm^−3): 11.6% |
| NCCCC[C@H](NC(=O)OCc1ccccc1Br)C(=O)NCCNC(=O)CCN(CCCC[C@@H](C(=O)NCCc1c[nH]c2ccccc12)N(CCC(=O)NCCNC(=O)[C@H](CCCCN)NC(=O)OCc1ccccc1Br)CCC(=O)NCCNC(=O)[C@H](CCCCN)NC(=O)OCc1ccccc1Br)CCC(=O)NCCNC(=O)[C@H](CCCCN)NC(=O)OCc1ccccc1Br [Compound 104] | 30 | 30 | 64 | 3.43 | Live cells (%) ([1]; concentration 21.4 μMol dm^−3): 73.6% |
| NCCC[C@H](NC(=O)OCc1ccccc1Cl)C(=O)NCCNC(=O)CCN(CCCC[C@@H](C(=O)NCCc1c[nH]c2ccccc12)N(CCC(=O)NCCNC(=O)[C@H](CCCN)NC(=O)OCc1ccccc1Cl)CCC(=O)NCCNC(=O)[C@H](CCCN)NC(=O)OCc1ccccc1Cl)CCC(=O)NCCNC(=O)[C@H](CCCN)NC(=O)OCc1ccccc1Cl [Compound 106] | 25 | 16.7 | 71 | 3.82 | Live cells (%) ([1]; concentration 10.0 μMol dm^−3): 87.7% |
| N[C@@H](CCCCNC(=O)OCc1ccccc1Cl)C(=O)NCCNC(=O)CCN(CCCC[C@@H](C(=O)NCCc1c[nH]c2ccccc12)N(CCC(=O)NCCNC(=O)[C@@H](N)CCCCNC(=O)OCc1ccccc1Cl)CCC(=O)NCCNC(=O)[C@@H](N)CCCCNC(=O)OCc1ccccc1Cl)CCC(=O)NCCNC(=O)[C@@H](N)CCCCNC(=O)OCc1ccccc1Cl [Compound 101] | 10.0 | 12.0 | 51 | 0.93 | – |
| N[C@@H](CCCCNC(=O)OCc1ccccc1Cl)C(=O)NCCNC(=O)CCN(CCCC(C(=O)Nc1cccnc1)N(CCC(=O)NCCNC(=O)[C@@H](N)CCCCNC(=O)OCc1ccccc1Cl)CCC(=O)NCCNC(=O)[C@@H](N)CCCCNC(=O)OCc1ccccc1Cl)CCC(=O)NCCNC(=O)[C@@H](N)CCCCNC(=O)OCc1ccccc1Cl (some centres unmarked) [Compound 92] | – | – | – | – | Live cells (%) ([1]; concentration 7.14 μMol dm^−3): 97.7% |
| NCCCC[C@H](NC(=O)OCc1ccccc1Cl)C(=O)NCCNC(=O)CCN(CCCC[C@@H](C(=O)NCCc1c[nH]c2ccccc12)N(CCC(=O)NCCNC(=O)[C@H](CCCCN)NC(=O)OCc1ccccc1Cl)CCC(=O)NCCNC(=O)[C@H](CCCCN)NC(=O)OCc1ccccc1Cl)CCC(=O)NCCNC(=O)[C@H](CCCCN)NC(=O)OCc1ccccc1Cl [Compound 100] | 5.81 | 3.71 | 41 | 0.93 | Live cells (%) ([1]; concentration 25.7 μMol dm^−3): 0% |
| N[C@@H](CCCCNC(=O)OCc1ccccc1Cl)C(=O)NCCNC(=O)CCN(CCC(=O)NCCNC(=O)[C@@H](N)CCCCNC(=O)OCc1ccccc1Cl)CC[C@@H](C(=O)NCCc1c[nH]c2ccccc12)N(CCC(=O)NCCNC(=O)[C@@H](N)CCCCNC(=O)OCc1ccccc1Cl)CCC(=O)NCCNC(=O)[C@@H](N)CCCCNC(=O)OCc1ccccc1Cl [Compound 95] | 32 | 32 | 51 | 1.88 | – |
